{"source": "patent US20060045880A1", "about": "(priority 2004, published 2006)", "key": {"APJ transcript": {"system": "APJ transcript", "assay": "Antisense morpholino loss-of-function in frog embryos (APJ)", "assay_type": "in vivo, Xenopus laevis", "experimental": "One antisense morpholino oligonucleotide, designed to block translation from both copies of the APJ transcript, was targeted immediately upstream of the initiation ATG: apj 5′-[…]-3′ (SEQ ID NO:9).\nThe 5 base pair mismatch control sequence for the apj morpholino oligonucleotide (apjmm) is: apjmm 5′-AAGcCTcTGTGcAAcCAATAcAAAG-3′ (SEQ ID NO:10); the mismatch bases indicated in lowercase.\n(§1) Morpholino oligonucleotides were reconstituted in 50 mM HEPES buffer (pH 8.0) and injected into the frog embryo. The ap1 MO was injected at 15 ng per embryo, and the ap2 and apj MOs were injected at 7.5 ng. Mismatch controls, ap2 mm and apjmm, were used at twice the experimental dose (15 ng). The MOs were injected into one cell of a 2 cell embryo together with Texas Red Dextran (10 ng; Molecular Probes) as a lineage tracer. Embryos were grown to stage 35 when they were assayed by in situ hybridization using the vascular marker, erg."}, "apelin transcript": {"system": "apelin transcript", "assay": "Antisense morpholino loss-of-function in frog embryos (apelin)", "assay_type": "in vivo, Xenopus laevis", "experimental": "Loss-of-function experiments were performed using antisense morpholino oligonucleotides (MOs) (Gene Tools, Philomath, Oreg.), and the results are shown in FIG. 9. All morpholino oligonucleotides were designed based on recommendations from Gene Tools.\nas §1"}, "apelin expression": {"system": "apelin expression", "assay": "Apelin expression in cardiac myocytes under cobalt chloride (hypoxia mimic), PCR", "assay_type": "cell-based, rat", "experimental": "Preliminary experiments were carried out using primary rat cardiomyocyte cells in culture and treatment with cobalt chloride. This procedure is accepted as an equivalent to culturing cells under hypoxic conditions because HIF-1α is a metal responsive transcription protein (Ladoux and Frelin, 1994; Piret et al., 2002; Maxwell and Salnikow, 2004). Fetal rat cardiac myocytes were plated and cultured in DMEM (Invitrogen, Carlsbad, Calif.) supplemented with 10% fetal calf serum and penicillin/streptomyocin at 37° C. After four days of culture, medium was removed, and cells were treated with fresh media containing 150 μM Cobalt Chloride (Piret et al., 2002). […] After 4 hours of culture, cells were harvested, and total RNA was extracted using the Trizol procedure according to the manufacturers recommendations (Invitrogen, Carlsbad, Calif.).\nFollowing PCR, amplification products were fractionated on an agarose gel and visualized using ethidium bromide staining under ultraviolet light (FIG. 12).\nThe myocytes were grown in the presence of Cobalt chloride (30 μg/ml). A control known to be non-responsive to hypoxic conditions was used (β-actin), as well as two positive controls which are known to be responsive to hypoxic conditions (VEGF and GLUTI)."}, "[1]": {"system": "mouse endothelial cells (bEnd3)", "assay": "bEnd3 cell proliferation, BrdU incorporation", "assay_type": "cell-based", "experimental": "Similar cellular proliferation assays were performed using mouse endothelial cells (bEnd3) that constitutively express APJ. […] SU1498 was included in proliferation cultures at a 25 μM concentration, and results were assayed using BrdU incorporation.\nProliferation inhibition experiments with the bEnd3 cells also were carried out using FGF (50 ng/ml) or the FGF pathway inhibitor SU5402 (FIG. 19). SU5402 was included in proliferation cultures at a 20 μM concentration, and results were assayed using BrdU incorporation."}, "BAE/APJ#2 cells [2]": {"system": "BAE/APJ#2 cells", "assay": "BAE/APJ#2 cell proliferation, BrdU incorporation", "assay_type": "cell-based, bovine", "parameters": "effect on VEGF-mediated proliferation: dose or concentration left out as unconfirmed", "experimental": "(§2) Bovine aortic endothelial cells (BAE) were cultured in DMEM supplemented with 10% fetal bovine serum (FBS) and penicillin/streptomycin. For generation of stable cell lines expressing APJ, the mouse APJ coding region was cloned into the pcDNA 3.1 vector downstream of the CMV promoter, in frame with a myc epitope at the C-terminal end of the protein, and upstream of the neomycin gene. Bovine aortic endothelial (BAE) cells were transfected with this construction using the Superfect transfection kit (Qiagen) and selected for resistance to G418 (600 μg/ml). Colonies were isolated and screened using RT-PCR for expression of mouse APJ and also by immunocytochemistry for expression of the myc epitope."}, "BAE/APJ#2 cells [3]": {"system": "BAE/APJ#2 cells", "conditions": "10 ng/ml in bottom chamber, 16 hours", "experimental": "as §2\nCell migration assays were performed using Transwell cell culture migration chambers (Becton Dickinson) with 8 micron pore size. BAE/APJ#2 cells were plated in serum free conditions in 100 μl at a concentration of 1×10^5 ml in the upper chamber of the migration chamber. Following cell attachment to the membrane, 10 ng/ml of growth factor was added to the bottom chamber, in a total volume of 0.5 ml. […] Cells attached to the membrane in the lower chamber were stained with DAPI, and 3 random fields were counted for each experimental condition."}}, "data": [{"compound": "5′-AAGGCTGTGTGGAAGCAATAGAAAG-3′ (all phosphorodiamidate morpholino (PMO)) [antisense morpholino to the APJ receptor]", "values": [{"measurement": "embryos with decrease in angiogenic growth of blood vessels", "setting": "APJ transcript; 7.5 ng, N=48, stage 35", "result": "71 % of the embryos"}]}, {"compound": "5′-AAGcCTcTGTGcAAcCAATAcAAAG-3′ (antisense AAGCCTCTGTGCAACCAATACAAAG; all phosphorodiamidate morpholino (PMO)) [apjmm]", "values": [{"measurement": "alteration in the vascular growth of the embryos", "setting": "APJ transcript; mismatch control, 15 ng", "result": "did not produce a detectable alteration"}]}, {"compound": "5′-GATTCATGTTTCTTGTGGCTGAGTG-3′ (all phosphorodiamidate morpholino (PMO)) [ap2]", "values": [{"measurement": "embryos with loss of intersomitic vessel formation", "setting": "apelin transcript; 7.5 ng, N=64, stage 35", "result": "63 % of the embryos"}]}, {"compound": "5′-GATTgATcTTTgTTGTGcCTcAGTG-3′ (antisense GATTGATCTTTGTTGTGCCTCAGTG; all phosphorodiamidate morpholino (PMO)) [ap2 mm]", "values": [{"measurement": "alteration in the vascular growth of the embryos", "setting": "apelin transcript; mismatch control, 15 ng", "result": "did not produce a detectable alteration"}]}, {"compound": "5′-GTGCCCAAAGTCTGAGATTCATGTT-3′ (all phosphorodiamidate morpholino (PMO)) [ap1]", "values": [{"measurement": "embryos with inhibition of angiogenic growth of embryonic blood vessels", "setting": "apelin transcript; 15 ng per embryo, N=76, stage 35", "result": "67 % of the embryos"}]}, {"compound": "[Cl][Co][Cl]", "note": "[Cobalt Chloride]", "values": [{"measurement": "apelin expression (PCR)", "setting": "apelin expression; 150 μM Cobalt Chloride, 4 hours, fetal rat cardiac myocytes", "result": "significantly increased"}, {"measurement": "apelin expression", "setting": "apelin expression; Cobalt chloride 30 μg/ml, rat cardiac myocytes", "result": "induced"}]}, {"compound": "CC(C)c1cc(/C=C(\\C#N)C(=O)NCCCc2ccccc2)cc(C(C)C)c1O", "note": "[SU1498]", "values": [{"measurement": "effect on VEGF-mediated proliferation", "setting": "[1]; bEnd3, SU1498 25 μM, VEGF 50 ng/ml", "result": "partially inhibits"}, {"measurement": "effect on apelin-mediated proliferation", "setting": "[1]; bEnd3, SU1498 25 μM, apelin 10 ng/ml", "result": "no significant effect"}, {"measurement": "effect on VEGF-mediated proliferation", "setting": "BAE/APJ#2 cells [2]; SU1498", "result": "partially inhibits"}, {"measurement": "effect on apelin-mediated proliferation", "setting": "BAE/APJ#2 cells [2]; SU1498 10 ng/ml", "result": "no significant effect"}]}, {"compound": "Cc1c[nH]c(/C=C2\\C(=O)Nc3ccccc32)c1CCC(=O)O", "note": "[SU5402]", "values": [{"measurement": "effect on the proliferative effect of FGF", "setting": "[1]; bEnd3, SU5402 20 μM, FGF 50 ng/ml", "result": "partially inhibited"}, {"measurement": "effect on apelin-stimulated cellular proliferation", "setting": "[1]; bEnd3, SU5402 20 μM, apelin 10 ng/ml", "result": "did not have a significant effect"}]}, {"compound": "VEGF", "values": [{"measurement": "endothelial cell migration (cells per field)", "setting": "BAE/APJ#2 cells [3]", "result": "increase in migration"}, {"measurement": "cellular proliferation of endothelial cells", "setting": "[1]; bEnd3, apelin 10 ng/ml, VEGF 50 ng/ml, FIG. 17 0.1 ng/ml to 1 μg/ml", "result": "proliferate"}]}]}
